In PubChem BioAssay (NCI):
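Values below derive from 48-hour exposures of cells grown in 96-well plates, with endpoints linearly interpolated between the two concentrations bracketing the appropriate inhibition level. GI50 = concentration required for 50% inhibition of growth. The concentration for full growth arrest is given as TGI.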

The molecules below were run on M14 melanoma (assay: NCI-60 cell line screen, 48 h).

In order of falling GI50:
1. C#C[C@]1(O)CCC2C3CCc4cc(O)ccc4C3CC[C@@]21C (some centres undefined)  3.87 µM
2. Cc1ncc(C(=O)Nc2ccc(CN3CCN(C)CC3)c(C(F)(F)F)c2)cc1C#Cc1cnc(N)c2ccncc12  0.783 µM

In order of falling TGI:
1. C#C[C@]1(O)CCC2C3CCc4cc(O)ccc4C3CC[C@@]21C (some centres undefined)  13.5 µM
2. Cc1ncc(C(=O)Nc2ccc(CN3CCN(C)CC3)c(C(F)(F)F)c2)cc1C#Cc1cnc(N)c2ccncc12  2.5 µM

Each molecule was assayed on MALME-3M melanoma (assay: NCI-60 cell line screen, 48 h).

In order of falling TGI:
1. CN1C2CCC1CC(=CCOC(c1ccc(F)cc1)c1ccc(F)cc1)C2  27.2 µM
2. C#C[C@]1(O)CCC2C3CCc4cc(O)ccc4C3CC[C@@]21C (some centres undefined)  22.4 µM
3. Nc1c(C(=O)Nc2ccncc2)sc2nc3c(cc12)CCCCCCCC3  1.66 µM
4. Cc1ncc(C(=O)Nc2ccc(CN3CCN(C)CC3)c(C(F)(F)F)c2)cc1C#Cc1cnc(N)c2ccncc12  1.59 µM

In order of rising GI50:
1. Cc1ncc(C(=O)Nc2ccc(CN3CCN(C)CC3)c(C(F)(F)F)c2)cc1C#Cc1cnc(N)c2ccncc12  0.361 µM
2. Nc1c(C(=O)Nc2ccncc2)sc2nc3c(cc12)CCCCCCCC3  0.87 µM
3. C#C[C@]1(O)CCC2C3CCc4cc(O)ccc4C3CC[C@@]21C (some centres undefined)  7.08 µM

These molecules were tested on MCF7 breast (assay: NCI-60 cell line screen, 48 h).

In order of falling TGI:
1. CN1C2CCC1CC(=CCOC(c1ccc(F)cc1)c1ccc(F)cc1)C2  34.6 µM
2. C#C[C@]1(O)CCC2C3CCc4cc(O)ccc4C3CC[C@@]21C (some centres undefined)  25.2 µM
3. Cc1ncc(C(=O)Nc2ccc(CN3CCN(C)CC3)c(C(F)(F)F)c2)cc1C#Cc1cnc(N)c2ccncc12  2.9 µM
4. Nc1c(C(=O)Nc2ccncc2)sc2nc3c(cc12)CCCCCCCC3  1.75 µM

In order of rising GI50:
1. Nc1c(C(=O)Nc2ccncc2)sc2nc3c(cc12)CCCCCCCC3  0.886 µM
2. Cc1ncc(C(=O)Nc2ccc(CN3CCN(C)CC3)c(C(F)(F)F)c2)cc1C#Cc1cnc(N)c2ccncc12  1.35 µM
3. C#C[C@]1(O)CCC2C3CCc4cc(O)ccc4C3CC[C@@]21C (some centres undefined)  9.51 µM

These molecules were tested on MDA-MB-231 breast (assay: NCI-60 cell line screen, 48 h).

In order of falling TGI:
1. C#C[C@]1(O)CCC2C3CCc4cc(O)ccc4C3CC[C@@]21C (some centres undefined)  47.2 µM
2. CN1C2CCC1CC(=CCOC(c1ccc(F)cc1)c1ccc(F)cc1)C2  37.1 µM
3. Cc1ncc(C(=O)Nc2ccc(CN3CCN(C)CC3)c(C(F)(F)F)c2)cc1C#Cc1cnc(N)c2ccncc12  2.02 µM
4. Nc1c(C(=O)Nc2ccncc2)sc2nc3c(cc12)CCCCCCCC3  1.66 µM

In order of rising GI50:
1. Cc1ncc(C(=O)Nc2ccc(CN3CCN(C)CC3)c(C(F)(F)F)c2)cc1C#Cc1cnc(N)c2ccncc12  0.526 µM
2. Nc1c(C(=O)Nc2ccncc2)sc2nc3c(cc12)CCCCCCCC3  0.899 µM
3. C#C[C@]1(O)CCC2C3CCc4cc(O)ccc4C3CC[C@@]21C (some centres undefined)  7.58 µM

The molecules below were run on MDA-MB-435 (assay: NCI-60 cell line screen, 48 h).

In order of rising TGI:
1. Nc1c(C(=O)Nc2ccncc2)sc2nc3c(cc12)CCCCCCCC3  1.6 µM
2. Cc1ncc(C(=O)Nc2ccc(CN3CCN(C)CC3)c(C(F)(F)F)c2)cc1C#Cc1cnc(N)c2ccncc12  2.86 µM
3. C#C[C@]1(O)CCC2C3CCc4cc(O)ccc4C3CC[C@@]21C (some centres undefined)  9.59 µM
4. CN1C2CCC1CC(=CCOC(c1ccc(F)cc1)c1ccc(F)cc1)C2  25.7 µM

In order of falling GI50:
1. Cc1ncc(C(=O)Nc2ccc(CN3CCN(C)CC3)c(C(F)(F)F)c2)cc1C#Cc1cnc(N)c2ccncc12  1.43 µM
2. Nc1c(C(=O)Nc2ccncc2)sc2nc3c(cc12)CCCCCCCC3  0.869 µM
3. C#C[C@]1(O)CCC2C3CCc4cc(O)ccc4C3CC[C@@]21C (some centres undefined)  0.628 µM

The molecules below were run on MOLT-4 leukemia (assay: NCI-60 cell line screen, 48 h).

In order of falling TGI:
1. CN1C2CCC1CC(=CCOC(c1ccc(F)cc1)c1ccc(F)cc1)C2  42.3 µM
2. C#C[C@]1(O)CCC2C3CCc4cc(O)ccc4C3CC[C@@]21C (some centres undefined)  26.3 µM
3. Cc1ncc(C(=O)Nc2ccc(CN3CCN(C)CC3)c(C(F)(F)F)c2)cc1C#Cc1cnc(N)c2ccncc12  4.62 µM
4. Nc1c(C(=O)Nc2ccncc2)sc2nc3c(cc12)CCCCCCCC3  2.76 µM

In order of falling GI50:
1. C#C[C@]1(O)CCC2C3CCc4cc(O)ccc4C3CC[C@@]21C (some centres undefined)  3.65 µM
2. Nc1c(C(=O)Nc2ccncc2)sc2nc3c(cc12)CCCCCCCC3  1.22 µM
3. Cc1ncc(C(=O)Nc2ccc(CN3CCN(C)CC3)c(C(F)(F)F)c2)cc1C#Cc1cnc(N)c2ccncc12  0.389 µM

Each molecule was assayed on NCI-H226 lung (assay: NCI-60 cell line screen, 48 h).

In order of rising TGI:
1. Nc1c(C(=O)Nc2ccncc2)sc2nc3c(cc12)CCCCCCCC3  2.03 µM
2. Cc1ncc(C(=O)Nc2ccc(CN3CCN(C)CC3)c(C(F)(F)F)c2)cc1C#Cc1cnc(N)c2ccncc12  14.3 µM
3. C#C[C@]1(O)CCC2C3CCc4cc(O)ccc4C3CC[C@@]21C (some centres undefined)  30.8 µM
4. CN1C2CCC1CC(=CCOC(c1ccc(F)cc1)c1ccc(F)cc1)C2  37.4 µM

In order of rising GI50:
1. Cc1ncc(C(=O)Nc2ccc(CN3CCN(C)CC3)c(C(F)(F)F)c2)cc1C#Cc1cnc(N)c2ccncc12  0.527 µM
2. Nc1c(C(=O)Nc2ccncc2)sc2nc3c(cc12)CCCCCCCC3  0.919 µM
3. C#C[C@]1(O)CCC2C3CCc4cc(O)ccc4C3CC[C@@]21C (some centres undefined)  10.3 µM

The molecules below were run on NCI-H23 lung (assay: NCI-60 cell line screen, 48 h).

In order of falling TGI:
1. CN1C2CCC1CC(=CCOC(c1ccc(F)cc1)c1ccc(F)cc1)C2  32 µM
2. Nc1c(C(=O)Nc2ccncc2)sc2nc3c(cc12)CCCCCCCC3  1.74 µM

In the case of `Nc1c(C(=O)Nc2ccncc2)sc2nc3c(cc12)CCCCCCCC3`, the GI50 is reported as 0.9 µM.
